# Results taken from patent US20260297070A1, “CYCLIC [COMPOUND LEFT OUT] WRN INHIBITORS” (Nimbus Wadjet, Inc., priority 2023, published 2026).
# Target: T1, human Werner helicase (WRN-BV08, Uniprot Q14191, amino acids 517-1235 with L1074F point mutation) (Homo sapiens, UniProt Q14191, L1074F)
# T1 construct: Uniprot Q14191, amino acids 517-1235 with L1074F point mutation; TEV-cleavable 8×His (C, cleaved yes); made in house; host or cells: Sf9 insect cells (baculovirus)
# Assay: WRN (BV08) ADP-Glo Assay
# Assay type: biochemical
# Details: 0.15 nM WRN, 5 μM ATP, 0.1 nM DNA duplex, 15 min preincubation, 60 min at 25° C., pH 7.5, 1% DMSO; read-out: ADP-Glo_hWRN_IC50
# Summary of the method: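 WRN 0.15 nM + cpd, 15 min 25 °C; add 5 μM ATP / 0.1 nM annealed DNA duplex; 60 min 25 °C; ADP-Glo stop, RLU. Buffer 20 mM Bicine pH 7.5, 1 mM MgCl2, 10 mM KCl, 1 mM TCEP. IC50, 4-parameter fit.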
# T1 sequence (Q14191 with tags, fused parts or gaps L1074F limits assumed): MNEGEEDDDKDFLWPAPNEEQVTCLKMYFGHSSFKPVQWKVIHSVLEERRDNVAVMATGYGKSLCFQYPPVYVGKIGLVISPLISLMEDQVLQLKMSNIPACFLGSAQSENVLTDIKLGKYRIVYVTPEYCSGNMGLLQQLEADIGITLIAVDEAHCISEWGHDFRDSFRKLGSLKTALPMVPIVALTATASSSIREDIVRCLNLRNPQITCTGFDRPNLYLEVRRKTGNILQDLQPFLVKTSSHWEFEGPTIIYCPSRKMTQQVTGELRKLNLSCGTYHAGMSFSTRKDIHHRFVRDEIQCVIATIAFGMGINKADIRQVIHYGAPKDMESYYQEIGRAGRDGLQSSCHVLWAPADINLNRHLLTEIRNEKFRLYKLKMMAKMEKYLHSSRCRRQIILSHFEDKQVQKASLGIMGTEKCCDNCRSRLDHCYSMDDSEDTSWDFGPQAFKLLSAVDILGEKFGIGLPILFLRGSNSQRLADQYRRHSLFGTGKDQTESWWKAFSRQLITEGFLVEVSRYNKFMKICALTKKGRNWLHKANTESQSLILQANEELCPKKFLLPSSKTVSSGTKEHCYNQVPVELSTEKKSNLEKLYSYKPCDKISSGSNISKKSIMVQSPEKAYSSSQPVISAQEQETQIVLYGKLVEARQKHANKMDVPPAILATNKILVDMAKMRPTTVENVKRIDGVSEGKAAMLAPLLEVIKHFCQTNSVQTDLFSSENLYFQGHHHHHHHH
row,Structure (SMILES),IC50 [µM]
1,"O=C1Nc2cc(C(F)(F)F)ccc2SC1CC(=O)N(Cc1ccncc1)C1C=CS(=O)(=O)C1 (centres unmarked) [I-231, N-(1,1-dioxo-2,3-dihydro-1lambda6-thiophen-3-yl)-2-[3-oxo-6-(trifluoromethyl)-3,4-dihydro-2H-1,4-benzothiazin-2-yl]-N-[(pyridin-4-yl)methyl]acetamide]",5 to 10
2,"O=C(Cc1ccc(-n2cccc2)cc1)N(Cc1cccc(-n2cccn2)c1)C1C=CS(=O)(=O)C1 (centres unmarked) [I-232, N-(1,1-dioxo-2,3-dihydro-1lambda6-thiophen-3-yl)-N-{[3-(1H-pyrazol-1-yl)phenyl]methyl}-2-[4-(1H-pyrrol-1-yl)phenyl]acetamide]",5 to 10
3,"O=C(C1Cc2cc(-n3cccc3)ccc21)N(Cc1ccncc1)C1C=CS(=O)(=O)C1 (centres unmarked) [I-233, N-(1,1-dioxido-2,3-dihydrothiophen-3-yl)-N-(pyridin-4-ylmethyl)-3-(1H-pyrrol-1-yl)bicyclo[4.2.0]octa-1(6),2,4-triene-7-carboxamide]",5 to 10
4,"COc1cccc(CN(C(=O)Cc2ccc(-n3cccc3)cc2)C2C=CS(=O)(=O)C2)c1 (centres unmarked) [I-234, N-(1,1-dioxo-2,3-dihydro-1lambda6-thiophen-3-yl)-N-[(3-methoxyphenyl)methyl]-2-[4-(1H-pyrrol-1-yl)phenyl]acetamide]",5 to 10
5,"O=C(Cc1ccc(C(F)(F)F)c(F)c1)N(Cc1ccncc1)C1C=CS(=O)(=O)C1 (centres unmarked) [I-236, N-(1,1-dioxo-2,3-dihydro-1lambda6-thiophen-3-yl)-2-[3-fluoro-4-(trifluoromethyl)phenyl]-N-[(pyridin-4-yl)methyl]acetamide]",5 to 10
6,"C#CCCCC(=O)N1CCN(c2ccc(CN(C(=O)Cc3ccc(-n4cccc4)cc3)C3C=CS(=O)(=O)C3)cc2)CC1 (centres unmarked) [I-238, N-(1,1-dioxo-2,3-dihydro-1lambda6-thiophen-3-yl)-N-({4-[4-(hex-5-ynoyl)piperazin-1-yl]phenyl}methyl)-2-[4-(1H-pyrrol-1-yl)phenyl]acetamide]",0.5 to 5
7,"O=C(Cc1ccc(-n2cccc2)cc1)N(Cc1ccncc1)C1C=CS(=O)(=O)C1 (centres unmarked) [I-239, N-(1,1-dioxo-2,3-dihydro-1lambda6-thiophen-3-yl)-N-[(pyridin-4-yl)methyl]-2-[4-(1H-pyrrol-1-yl)phenyl]acetamide]",5 to 10
8,"COc1cc(CN(C(=O)CCc2c[nH]c3cc(Cl)ccc23)C2C=CS(=O)(=O)C2)ccn1 (centres unmarked) [I-240, 3-(6-chloro-1H-indol-3-yl)-N-(1,1-dioxo-2,3-dihydro-1lambda6-thiophen-3-yl)-N-[(2-methoxypyridin-4-yl)methyl]propanamide]",5 to 10
9,"COc1cc(CN(C(=O)Cc2c(F)cc(-n3cccc3C)cc2F)C2C=CS(=O)(=O)C2)ccn1 (centres unmarked) [I-241, 2-[2,6-difluoro-4-(2-methyl-1H-pyrrol-1-yl)phenyl]-N-(1,1-dioxo-2,3-dihydro-1lambda6-thiophen-3-yl)-N-[(2-methoxypyridin-4-yl)methyl]acetamide]",5 to 10
10,"O=C(Cc1ccc(-n2cccc2)cc1)N(Cc1ccc(F)cc1F)C1C=CS(=O)(=O)C1 (centres unmarked) [I-242, N-[(2,4-difluorophenyl)methyl]-N-(1,1-dioxo-2,3-dihydro-1lambda6-thiophen-3-yl)-2-[4-(1H-pyrrol-1-yl)phenyl]acetamide]",5 to 10
11,"O=C(Cc1ccc(-n2cccc2)cc1)N(Cc1cccc2cccnc12)C1C=CS(=O)(=O)C1 (centres unmarked) [I-243, N-(1,1-dioxo-2,3-dihydro-1lambda6-thiophen-3-yl)-2-[4-(1H-pyrrol-1-yl)phenyl]-N-[(quinolin-8-yl)methyl]acetamide]",5 to 10
12,"O=C(C1Cc2cc(-n3cccc3)ccc2O1)N(Cc1ccncc1)C1C=CS(=O)(=O)C1 (centres unmarked) [I-244, N-(1,1-dioxo-2,3-dihydro-1lambda6-thiophen-3-yl)-N-[(pyridin-4-yl)methyl]-5-(1H-pyrrol-1-yl)-2,3-dihydro-1-benzofuran-2-carboxamide]",5 to 10
13,"CC1CC1c1ccc(CC(=O)N(Cc2ccncc2)C2C=CS(=O)(=O)C2)cc1 (centres unmarked) [I-245, N-(1,1-dioxo-2,3-dihydro-1lambda6-thiophen-3-yl)-2-[4-(2-methylcyclopropyl)phenyl]-N-[(pyridin-4-yl)methyl]acetamide]",5 to 10
14,"COc1cc(CN(C(=O)C(OC)c2ccc(C(F)(F)F)cc2)C2C=CS(=O)(=O)C2)ccn1 (centres unmarked) [I-246, N-(1,1-dioxo-2,3-dihydro-1lambda6-thiophen-3-yl)-2-methoxy-N-[(2-methoxypyridin-4-yl)methyl]-2-[4-(trifluoromethyl)phenyl]acetamide]",5 to 10
15,"COc1cc(CN(C(=O)Cc2ccc(-c3ccc(F)cc3)cc2)C2C=CS(=O)(=O)C2)on1 (centres unmarked) [I-247, N-(1,1-dioxo-2,3-dihydro-1lambda6-thiophen-3-yl)-2-{4′-fluoro-[1,1′-biphenyl]-4-yl}-N-[(3-methoxy-1,2-oxazol-5-yl)methyl]acetamide]",5 to 10
16,"O=C(Cc1ccc(-c2ccsc2)cc1)N(Cc1ccncc1)C1C=CS(=O)(=O)C1 (centres unmarked) [I-248, N-(1,1-dioxo-2,3-dihydro-1lambda6-thiophen-3-yl)-N-[(pyridin-4-yl)methyl]-2-[4-(thiophen-3-yl)phenyl]acetamide]",5 to 10
17,"O=C(C1Cc2cc(-c3ccc(F)cc3)ccc21)N(Cc1ccncc1)C1C=CS(=O)(=O)C1 (centres unmarked) [I-249, N-(1,1-dioxo-2,3-dihydro-1lambda6-thiophen-3-yl)-3-(4-fluorophenyl)-N-[(pyridin-4-yl)methyl]bicyclo[4.2.0]octa-1(6),2,4-triene-7-carboxamide]",5 to 10
18,"COc1cc(CN(C(=O)Cc2ccc(-n3cccc3C)cn2)C2C=CS(=O)(=O)C2)ccn1 (centres unmarked) [I-250, N-(1,1-dioxo-2,3-dihydro-1lambda6-thiophen-3-yl)-N-[(2-methoxypyridin-4-yl)methyl]-2-[5-(2-methyl-1H-pyrrol-1-yl)pyridin-2-yl]acetamide]",5 to 10
19,"O=C(Cc1ccc(-n2cccc2)cc1)N(Cc1ccc2nccnc2c1)C1C=CS(=O)(=O)C1 (centres unmarked) [I-251, N-(1,1-dioxo-2,3-dihydro-1lambda6-thiophen-3-yl)-2-[4-(1H-pyrrol-1-yl)phenyl]-N-[(quinoxalin-6-yl)methyl]acetamide]",5 to 10
20,"O=C(Cc1ccc(OC(F)(F)F)cc1)N(Cc1ccncc1)C1C=CS(=O)(=O)C1 (centres unmarked) [I-252, N-(1,1-dioxo-2,3-dihydro-1lambda6-thiophen-3-yl)-N-[(pyridin-4-yl)methyl]-2-[4-(trifluoromethoxy)phenyl]acetamide]",5 to 10
21,"O=C(Cc1ccc(C(F)(F)F)cc1)N(Cc1ccncc1)C1C=CS(=O)(=O)C1 (centres unmarked) [I-254, N-(1,1-dioxo-2,3-dihydro-1lambda6-thiophen-3-yl)-N-[(pyridin-4-yl)methyl]-2-[4-(trifluoromethyl)phenyl]acetamide]",5 to 10
22,"CNC(=O)c1ccc(CN(C(=O)Cc2ccc(-n3cccc3)cc2)C2C=CS(=O)(=O)C2)cc1 (centres unmarked) [I-255, 4-{[N-(1,1-dioxo-2,3-dihydro-1lambda6-thiophen-3-yl)-2-[4-(1H-pyrrol-1-yl)phenyl]acetamido]methyl}-N-methylbenzamide]",5 to 10
23,"CS(=O)(=O)c1ccc(CN(C(=O)Cc2ccc(-n3cccc3)cc2)C2C=CS(=O)(=O)C2)cc1 (centres unmarked) [I-256, N-(1,1-dioxo-2,3-dihydro-1lambda6-thiophen-3-yl)-N-[(4-methanesulfonylphenyl)methyl]-2-[4-(1H-pyrrol-1-yl)phenyl]acetamide]",5 to 10
